Test [1] has as its target T1, GDP-loaded HIS-KRAS (G12D, aa 1-169) (Homo sapiens, UniProt P01116, G12D).
T1 construct: GDP-loaded HIS-KRAS (G12D, aa 1-169)
Briefly: SOS1 catalyzed nucleotide exchange assay. The class given is biochemical. Particulars: SOS1 ExD, TR-FRET, 4 hours at 25° C. As to the method: 1. SOS1 Catalyzed Nucleotide Exchange Assay
GDP-loaded HIS-KRAS (G12D, aa 1-169) was pre-incubated with a compound in the presence of 10 nM GDP in a 384-well plate (Greiner) for 15 min, then purified SOS1 ExD (Flag tag, aa 564-1049), BODIPY™ FL GTP (Invitrogen) and MAb (monoclonal antibody) Anti 6HIS-Tb cryptate Gold (Cisbio) were added to the assay wells (Final concentration: 1.5 nM GDP-loaded HIS-KRAS (G12D), 5 nM GDP, 0.5 μM SOS1 ExD, 80 nM BODIPY™ FL GTP, 52.5 ng/mL MAb Anti 6HIS-Tb cryptate Gold) and incubated for 4 hours at 25° C. Wells containing same percent of DMSO served as vehicle control, and wells without KRAS served as low control. TR-FRET signals were read on Tecan Spark multimode microplate reader. The parameters were F486: Excitation 340 nm, Emission 486 nm, Lag time 100 μs, Integration time 200 μs; F515: Excitation 340 nm, Emission 515 nm, Lag time 100 μs, Integration time 200 μs. TR-FRET ratios for each individual wells were calculated by equation: TR-FRET ratio=(Signal F515/Signal F486)*10000. The percent of activation of compounds treated wells were normalized between vehicle control and low control (% Activation=(TR-FRET ratioCompound treated−TR-FRET ratioLow control)/(TR-FRET ratioVehicle control−TR-FRET ratioLow control)*100%). Then the data were analyzed either by fitting a 4-parameter logistic model or by Excel to calculate IC50 values.
A general note: Time-resolved FRET reads energy transfer from a long-lived donor to a nearby acceptor.

The target in test [2] is T2, GppNp-loaded HIS-KRAS (G12D, aa 1-169) / cRAF RBD (Homo sapiens, UniProt P01116, G12D).
T2 construct: GppNp-loaded HIS-KRAS (G12D, aa 1-169)
T2 sequence (P01116 1-169 isoform P01116-2 G12D): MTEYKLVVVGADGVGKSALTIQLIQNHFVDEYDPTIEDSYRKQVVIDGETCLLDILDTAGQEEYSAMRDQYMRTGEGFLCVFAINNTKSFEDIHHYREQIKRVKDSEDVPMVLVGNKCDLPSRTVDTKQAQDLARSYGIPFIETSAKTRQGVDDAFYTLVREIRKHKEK
Briefly: GTP-KRAS and cRAF interaction assay. The class given is binding. The note with it: HTRF, 2 hours at 25° C. The procedure: 2. GTP-KRAS and cRAF Interaction Assay
GppNp-loaded HIS-KRAS (G12D, aa 1-169) was pre-incubated with a compound in the presence of 200 µM GTP in a 384-well plate (Greiner) for 15 min, then cRAF RBD (GST tag, aa 50-132, CreativeBioMart), MAb Anti GST-d2 (Cisbio) and MAb Anti 6HIS-Tb cryptate Gold (Cisbio) were added to the assay wells (Final concentration: 2.0 nM GppNp-loaded HIS-KRAS (G12D), 100 μM GTP, 35 nM cRAF RBD, 1 μg/mL MAb Anti GST-d2, 52.5 ng/mL MAb Anti 6HIS-Tb cryptate Gold) and incubated for 2 hours at 25° C. Wells containing same percent of DMSO served as vehicle control, and wells without KRAS served as low control. HTRF signals were read on Tecan Spark multimode microplate reader and HTRF ratios were calculated under manufacturer's instructions. The percent of activation of compounds treated wells were normalized between vehicle control and low control (% Activation=(HTRF ratioCompound treated−HTRF ratioLow control)/(HTRF ratioVehicle control−HTRF ratioLow control)*100). Then the data were analyzed either by fitting a 4-parameter logistic model or by Excel to calculate IC50 values.

For test [3], the system named is AGS cells expressing KRAS G12D. Briefly: Phospho-ERK1/2(THR202/TYR204) HTRF assay. The class given is cell-based. The note with it: 2 hours incubation, read-out: AGS p-ERK IC50. The procedure:
AGS cells expressing KRAS G12D were cultured in F12K medium (Gibco) containing 10% fetal bovine serum (Gibco). The AGS cells in culture medium were seeded in 96-well plates at a concentration of 40,000 cells/well and then put in a 37° C./5% CO2 cell incubator to incubate overnight. The next day, culture medium was removed and the compound diluted in assay medium (F12K, 0.1% FBS) was added in each well. After 2 hours incubation in a 37° C./5% CO2 cell incubator, the assay medium in 96-well plates was removed, then 50 μL of 1× blocking reagent-supplemented lysis buffer (Cisbio) was added and the plates were incubated at 25° C. for 45 min with shaking. 10 μL of cell lysates from the 96-well plates were transferred to a 384-well plate (Greiner) containing 2.5 μL/well HTRF® pre-mixed antibodies (Cisbio 64AERPEH). Incubate 4 hours at 25° C. and then read HTRF signals on Tecan Spark multimode microplate reader. The data were analyzed using a 4-parameter logistic model to calculate IC50 values.

In a further test the test system is AGS. Briefly: Cell growth inhibition assay (AGS). The class given is cell-based. Particulars: 6 days incubation, CellTiter-Glo. As to the method: (§1) 4. Cell Growth Inhibition Assay
AGS cultured in F12K medium (Gibco) containing 10% fetal bovine serum (Gibco). Cells in culture medium were plated in 96-well plates at a concentration of 500 cells/well ([…]) and allowed to attach overnight.
(§2) The next day, compounds were diluted in culture medium and added to the plates. After 6 days incubation in a 37° C./5% CO2 cell incubator, the cell viability was detected by CellTiter-Glo® Luminescent Cell Viability Assay kit (Promega). Luminescent signals were read on Tecan Spark multimode microplate reader and analyzed using a 4-parameter logistic model to calculate IC50 values.
A general note: ATP-based viability assays read luminescence as a measure of living cells.

Another test deals with AsPC-1. Briefly: Cell growth inhibition assay (AsPC-1). Type of test: cell-based. Particulars: AsPC-1, 6 days incubation, CellTiter-Glo. The procedure: as §1
AsPC-1 cultured in RPMI-1640 medium (Gibco) containing 10% fetal bovine serum (Gibco). Cells in culture medium were plated in 96-well plates at a concentration of 1000 cells/well ([…]) and allowed to attach overnight.
as §2

Read-outs that look alike come from different tables or passages of the source.

Usually IC50 stands for the concentration needed to halve the response being measured.

T1 sequence (P01116 1-169 isoform P01116-2 G12D): as above

Regarding `C#Cc1cccc2cc(O)cc(-c3c(C(F)(F)F)cc4c(N5CC6CCC(C5)N6)nc(OCC5(CN6CCOCC6)CC5)nc4c3F)c12` [Compound 98], the IC50 was 0.00129 µM in test [1]; 0.0201 µM in test [2]; 0.0137 µM in test [3] (Homo sapiens); 0.018 µM in the test with AGS (Homo sapiens, 144 h); 0.0697 µM in the test on AsPC-1 (Homo sapiens, ASPC1, 144 h).
Take `C#Cc1c(Cl)ccc2cc(O)cc(-c3ccc4c(N5CC6CCC(C5)N6)nc(OCC5(CN6CCOCC6)CC5)nc4c3F)c12` [Compound 127]: the IC50 amounted to 0.00118 µM in test [1]; 0.0157 µM in test [2]; 0.00261 µM in test [3] (Homo sapiens); 0.00182 µM with AGS (Homo sapiens, 144 h); 0.024 µM with AsPC-1 (Homo sapiens, ASPC1, 144 h).
The matching figures for `C#Cc1cccc2cc(O)cc(-c3ccc4c(N5CC6CCC(C5)N6)nc(OCC5(CN6CCCC6)CC5)nc4c3F)c12` [Compound 116]: 0.0125 µM, 0.11 µM, 0.0108 µM, 0.0208 µM and 0.189 µM.
The matching figures for `C#Cc1cccc2cc(O)cc(-c3c(F)cc4c(N5CC6CCC(C5)N6)nc(OCC5(CN6CCOCC6)CC5)nc4c3C)c12` [Compound 101]: 0.00159 µM, 0.277 µM, 0.125 µM, 0.0396 µM and 0.113 µM.
The matching figures for `Oc1cc(-c2ccc3c(N4CC5CCC(C4)N5)nc(OCC4(CN5CCOCC5)CC4)nc3c2F)c2c(Cl)cccc2c1` [Compound 88]: 0.0167 µM, 0.148 µM, 0.0357 µM, 0.017 µM and 0.153 µM.
For `CCc1cccc2cc(O)cc(-c3ccc4c(N5CC6CCC(C5)N6)nc(OC[C@@]56CCCN5C[C@H](F)C6)nc4c3F)c12` [Compound 91], the IC50 in test [1] came to 0.00482 µM; in test [2] it was 0.102 µM; in test [3] (Homo sapiens), 0.00854 µM; in the test on AGS (Homo sapiens, 144 h), 0.0123 µM; with AsPC-1 (Homo sapiens, ASPC1, 144 h), 0.0316 µM.
On the same counts, the results for `C#Cc1c(OC)ccc2cc(O)cc(-c3ccc4c(N5CC6CCC(C5)N6)nc(OCC5(CN6CCOCC6)CC5)nc4c3F)c12` [Compound 94] are 0.00534 µM, 2.52 µM, 0.0285 µM, 0.333 µM and 1.15 µM.
The matching figures for `C#Cc1c(F)ccc2cc(O)cc(-c3ccc4c(N5CC6CCC(C5)N6)nc(OCC5(CN6CCC(O)CC6)CC5)nc4c3F)c12` [Compound 76]: 0.00433 µM, 0.0648 µM, 0.0083 µM, 0.0721 µM and 0.671 µM.
For `C#Cc1cccc2cc(O)cc(-c3c(C(F)(F)F)cc4c(N5CC6CCC(C5)N6)nc(OCC5(CN6CCOCC6)CC5)nc4c3F)c12` (single isomer, unassigned) [Compound 98A], the IC50 in test [1] amounted to 0.219 µM; in test [2], 4.26 µM; in test [3], 1.83 µM; in the test on AGS, 0.319 µM; in the test with AsPC-1, 1.44 µM.
Take `C#Cc1cccc2cc(O)cc(-c3ccc4c(N5CC6CCC(C5)N6)nc(OCC5(CN6CCSCC6)CC5)nc4c3F)c12` [Compound 78]: the IC50 stood at 0.0088 µM in test [1]; 0.0998 µM in test [2]; 0.0316 µM in test [3] (Homo sapiens); 0.00404 µM in the test with AGS (Homo sapiens, 144 h); 0.0303 µM in the test with AsPC-1 (Homo sapiens, ASPC1, 144 h).
On the same counts, the results for `C#Cc1c(F)ccc2cc(O)cc(-c3c(C(C)C)cc4c(N5CC6CCC(C5)N6)nc(OCC5(CN6CCOCC6)CC5)nc4c3F)c12` [Compound 106] are 0.000332 µM, 0.0013 µM, 0.0086 µM, 0.0018 µM and 0.0128 µM.
The matching figures for `C#Cc1cccc2cc(O)cc(-c3ccc4c(N5CC6CCC(C5)N6)nc(OCC5(CN6CCOCC6)CC5)nc4c3C)c12` [Compound 132]: 0.0257 µM, 0.794 µM, 0.0964 µM, 0.0332 µM and 0.111 µM.
Consider `C#Cc1cccc2cc(O)cc(-c3c(C#N)cc4c(N5CC6CCC(C5)N6)nc(OCC5(CN6CCOCC6)CC5)nc4c3F)c12` (single isomer, unassigned) [Compound 60B], for which the IC50 in test [1] is 0.0125 µM; in test [2], 0.0629 µM; in test [3] it was 0.00696 µM; in the test with AGS, 0.0131 µM; with AsPC-1, 0.207 µM.
For `C#Cc1cccc2cc(O)cc(-c3c(Cl)cc4c(N5CC6CCC(C5)N6)nc(OCC5(CN6CCOCC6)CC5)nc4c3Cl)c12` [Compound 107], the concentration for half-maximal inhibition (IC50) in test [1] turned out to be 0.00411 µM; in test [2], 0.524 µM; in test [3] (Homo sapiens), 0.14 µM; in the test on AGS (Homo sapiens, 144 h), 0.107 µM; in the test with AsPC-1 (Homo sapiens, ASPC1, 144 h), 0.282 µM.
The matching figures for `C#Cc1cccc2cc(O)cc(-c3ccc4c(N5CC6CCC(C5)N6)nc(OCC5(CN6CCOCC6)CC5)nc4c3Cl)c12` [Compound 121]: 0.0288 µM, 0.318 µM, 0.0197 µM, 0.0112 µM and 0.067 µM.
Take `C#Cc1cccc2cc(O)cc(-c3c(C(F)(F)F)cc4c(N5CC6CCC(C5)N6)nc(OCC5(CN6CCOCC6)CC5)nc4c3F)c12` (single isomer, unassigned) [Compound 98B]: the IC50 in test [1] was 0.000826 µM; in test [2], 0.0112 µM; in test [3], 0.0116 µM; with AGS, 0.00603 µM; in the test with AsPC-1 it was 0.0367 µM.
`C#Cc1cccc2cc(O)cc(-c3c(F)cc4c(N5CC6CCC(C5)N6)nc(OCC5(CN6CCOCC6)CC5)nc4c3Cl)c12` [Compound 43]: the IC50 came to 0.018 µM in test [1]; 0.417 µM in test [2]; 0.0178 µM in test [3] (Homo sapiens); 0.0183 µM in the test on AGS (Homo sapiens, 144 h); 0.0436 µM in the test on AsPC-1 (Homo sapiens, ASPC1, 144 h).
On the same counts, the results for `C#Cc1cccc2cc(O)cc(-c3ccc4c(N5CC6CCC(C5)N6)nc(OC[C@@]56CCCN5C[C@H](F)C6)nc4c3)c12` [Compound 96] are 0.0295 µM, 0.146 µM, 0.0342 µM, 0.205 µM and 0.394 µM.

For the origin of these results see patent publication US20240059710A1, “KRAS G12D Inhibitors” (Jacobio Pharmaceuticals Co., Ltd., priority 2020, published 2024).
